Measurements from patent publication US20240409557A1, “5,6-FUSED AND 6,6-FUSED BICYCLIC ALCOHOLS AND ETHERS AND COMPOSITIONS FOR USE AS 15-PROSTAGLANDIN DEHYDROGENASE MODULATORS” (AMGEN INC., priority 2023, published 2024).

Legend:
[1] = target: T1, 15-PGDH in A549 cells (Homo sapiens, UniProt P15428); assay: A549 cellular 15-PGDH assay (PGE2 accumulation, HTRF); format: cell-based; settings: interleukin-stimulated, inhibitor 24 hrs, PGE2 by competitive HTRF, read-out: A549 Cell Assay IC50
T1 construct: endogenous in cells; host or cells: A549
T1 sequence (P15428 1-266): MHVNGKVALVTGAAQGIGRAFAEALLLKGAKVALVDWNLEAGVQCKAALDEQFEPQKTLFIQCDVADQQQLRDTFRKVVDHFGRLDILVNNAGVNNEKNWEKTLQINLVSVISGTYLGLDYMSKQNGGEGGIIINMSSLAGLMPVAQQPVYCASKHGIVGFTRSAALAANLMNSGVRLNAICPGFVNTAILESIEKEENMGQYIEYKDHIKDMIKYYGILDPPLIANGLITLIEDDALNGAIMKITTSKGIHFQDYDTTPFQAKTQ
How it was run: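 Supernatant PGE2 was quantified by competitive HTRF, in which sample PGE2 blocks FRET between a europium cryptate-labelled antibody and labelled PGE2. It came from A549 epithelial cells induced with IL-13. IC50s were calculated from the inversely proportional signal.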

[2] = target: T2, human recombinant 15-PGDH (Homo sapiens, UniProt P15428); assay: Recombinant 15-PGDH enzymatic inhibition assay (PGDH-Lumi, NADH signal); format: biochemical; settings: recombinant 15-PGDH; 15 min pre-incubation, 60 min reaction with PGE2 and NAD+, NADH signal
T2 sequence (P15428 1-266): T1 sequence (P15428 1-266)
How it was run: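 Buffer 50 mM Tris pH 7.5 with 0.01% Tween-20 and […]; compound, 22 two-fold dilutions, pre-incubated with enzyme 15 min before substrate.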

SMILES	IC50 [1]	IC50 [2]
Cn1cc2cc(-c3ccc4nc([C@]5(O)C[C@](C)(C#N)C5)sc4n3)cnc2n1 (single isomer, unassigned) [Compound C91T, trans-3-hydroxy-1-methyl-3-(5-(2-methyl-2H-pyrazolo[3,4-b]pyridin-5-yl)[1,3]thiazolo[5,4-b]pyridin-2-yl)cyclobutanecarbonitrile]	5.85 nM	2.14 nM
Cn1cc2cc(-c3ncc4cc([C@]5(O)C[C@@](C)(C#N)C5)sc4n3)cnc2n1 (single isomer, unassigned) [Compound C96C, cis-3-hydroxy-1-methyl-3-(2-(2-methyl-2H-pyrazolo[3,4-b]pyridin-5-yl)thieno[2,3-d]pyrimidin-6-yl)cyclobutanecarbonitrile]	2.33 nM	0.755 nM
Cn1cc2cc(-c3ncc4cc([C@]5(O)C[C@](C)(C#N)C5)sc4n3)cnc2n1 (single isomer, unassigned) [Compound C96T, trans-3-hydroxy-1-methyl-3-(2-(2-methyl-2H-pyrazolo[3,4-b]pyridin-5-yl)thieno[2,3-d]pyrimidin-6-yl)cyclobutanecarbonitrile]	1.39 nM	0.445 nM
Cn1nnc2cc(-c3ncc4cc([C@]5(O)C[C@@](C)(C#N)C5)sc4n3)cnc21 (single isomer, unassigned) [Compound C98C, cis-3-hydroxy-1-methyl-3-(2-(3-methyl-3H-[1,2,3]triazolo[4,5-b]pyridin-6-yl)thieno[2,3-d]pyrimidin-6-yl)cyclobutanecarbonitrile]	18.7 nM	8.69 nM
Cn1nnc2cc(-c3ncc4cc([C@]5(O)C[C@](C)(C#N)C5)sc4n3)cnc21 (single isomer, unassigned) [Compound C98T, trans-3-hydroxy-1-methyl-3-(2-(3-methyl-3H-[1,2,3]triazolo[4,5-b]pyridin-6-yl)thieno[2,3-d]pyrimidin-6-yl)cyclobutanecarbonitrile]	2.66 nM	1.73 nM
CO[C@]1(C)C[C@@](O)(c2cc3ccc(-c4cnc5c(c4)nnn5C)nc3s2)C1 (single isomer, unassigned) [Compound C102C, cis-3-methoxy-3-methyl-1-(6-(3-methyl-3H-[1,2,3]triazolo[4,5-b]pyridin-6-yl)thieno[2,3-b]pyridin-2-yl)cyclobutanol]	2.53 nM	0.971 nM
CO[C@]1(C)C[C@](O)(c2cc3ccc(-c4cnc5c(c4)nnn5C)nc3s2)C1 (single isomer, unassigned) [Compound C102T, trans-3-methoxy-3-methyl-1-(6-(3-methyl-3H-[1,2,3]triazolo[4,5-b]pyridin-6-yl)thieno[2,3-b]pyridin-2-yl)cyclobutanol]	5.77 nM	1.65 nM
Cn1nnc2cc(-c3ccc4cc([C@]5(O)C[C@@](C)(C#N)C5)sc4n3)cnc21 (single isomer, unassigned) [Compound C104C, cis-3-hydroxy-1-methyl-3-(6-(3-methyl-3H-[1,2,3]triazolo[4,5-b]pyridin-6-yl)thieno[2,3-b]pyridin-2-yl)cyclobutanecarbonitrile]	11.3 nM	3.88 nM
Cn1nnc2cc(-c3ccc4cc([C@]5(O)C[C@](C)(C#N)C5)sc4n3)cnc21 (single isomer, unassigned) [Compound C104T, trans-3-hydroxy-1-methyl-3-(6-(3-methyl-3H-[1,2,3]triazolo[4,5-b]pyridin-6-yl)thieno[2,3-b]pyridin-2-yl)cyclobutanecarbonitrile]	1.44 nM	0.515 nM
Cn1cc2cc(-c3ccc4sc([C@]5(O)C[C@@](C)(C#N)C5)cc4n3)cnc2n1 (single isomer, unassigned) [Compound C106C, cis-3-hydroxy-1-methyl-3-(5-(2-methyl-2H-pyrazolo[3,4-b]pyridin-5-yl)thieno[3,2-b]pyridin-2-yl)cyclobutanecarbonitrile]	29.4 nM	16.7 nM
Cn1cc2cc(-c3ccc4sc([C@]5(O)C[C@](C)(C#N)C5)cc4n3)cnc2n1 (single isomer, unassigned) [Compound C106T, trans-3-hydroxy-1-methyl-3-(5-(2-methyl-2H-pyrazolo[3,4-b]pyridin-5-yl)thieno[3,2-b]pyridin-2-yl)cyclobutanecarbonitrile]	45.2 nM	24.2 nM
CO[C@]1(C(F)(F)F)C[C@@](O)(c2cc3cnc(-c4cnc5nn(C)cc5c4)nc3s2)C1 (single isomer, unassigned) [Compound C113C, cis-3-methoxy-1-(2-(2-methyl-2H-pyrazolo[3,4-b]pyridin-5-yl)thieno[2,3-d]pyrimidin-6-yl)-3-(trifluoromethyl)cyclobutanol]	7.19 nM	1.42 nM
CO[C@]1(C(F)(F)F)C[C@](O)(c2cc3cnc(-c4cnc5nn(C)cc5c4)nc3s2)C1 (single isomer, unassigned) [Compound C113T, trans-3-methoxy-1-(2-(2-methyl-2H-pyrazolo[3,4-b]pyridin-5-yl)thieno[2,3-d]pyrimidin-6-yl)-3-(trifluoromethyl)cyclobutanol]	1.11 nM	0.426 nM
Cn1cc2cc(-c3ncc4cc([C@]5(O)C[C@]6(CC6(F)F)C5)sc4n3)cnc2n1 (single isomer, unassigned) [Compound C114C, cis-1,1-difluoro-5-(2-(2-methyl-2H-pyrazolo[3,4-b]pyridin-5-yl)thieno[2,3-d]pyrimidin-6-yl)spiro[2.3]hexan-5-ol]	0.821 nM	0.323 nM
Cn1cc2cc(-c3ncc4cc([C@]5(O)C[C@@]6(CC6(F)F)C5)sc4n3)cnc2n1 (single isomer, unassigned) [Compound C114T, trans-1,1-difluoro-5-(2-(2-methyl-2H-pyrazolo[3,4-b]pyridin-5-yl)thieno[2,3-d]pyrimidin-6-yl)spiro[2.3]hexan-5-ol]	0.669 nM	0.488 nM
Cn1cc2cc(-c3ccc4nc([C@]5(O)C[C@]6(CC6(F)F)C5)sc4n3)cnc2n1 (single isomer, unassigned) [Compound C115C, cis-1,1-difluoro-5-(5-(2-methyl-2H-pyrazolo[3,4-b]pyridin-5-yl)[1,3]thiazolo[5,4-b]pyridin-2-yl)spiro[2.3]hexan-5-ol]	0.978 nM	0.393 nM
Cn1cc2cc(-c3ccc4nc([C@]5(O)C[C@@]6(CC6(F)F)C5)sc4n3)cnc2n1 (single isomer, unassigned) [Compound C115T, trans-1,1-difluoro-5-(5-(2-methyl-2H-pyrazolo[3,4-b]pyridin-5-yl)[1,3]thiazolo[5,4-b]pyridin-2-yl)spiro[2.3]hexan-5-ol]	1.39 nM	0.513 nM
CO[C@]1(C)C[C@@](O)(c2cc3cnc(-c4cnc5nn(C)cc5c4)nc3s2)C1 (single isomer, unassigned) [Compound C118C, cis-3-methoxy-3-methyl-1-(2-(2-methyl-2H-pyrazolo[3,4-b]pyridin-5-yl)thieno[2,3-d]pyrimidin-6-yl)cyclobutanol]	2.21 nM	0.557 nM
CO[C@]1(C)C[C@](O)(c2cc3cnc(-c4cnc5nn(C)cc5c4)nc3s2)C1 (single isomer, unassigned) [Compound C118T]	2.73 nM	0.864 nM
CO[C@]1(C)C[C@@](O)(c2cc3cnc(-c4cnc5c(c4)nnn5C)nc3s2)C1 (single isomer, unassigned) [Compound C121C]	23.8 nM	10.4 nM
